This is an account of results in US20100047227A1, “NOVEL ANTICANCER CATHEPSIN FORMULATIONS AND ANTICANCER AGENT FOR USE IN COMBINED ANTICANCER THERAPY” (priority 2006, published 2010).

Data set [1] deals with ALVA-41 cells tumor in nude mice. The experiment in a line: tumor growth in nude mice transplanted subcutaneously with ALVA-41 cells. The format is in vivo. As for the experimental part:
In order to study the growth of primary tumor, 1 ml of PBS solution containing ALVA-41 cells (5×10^6 cells) was injected subcutaneously into the right flank of a male nude mouse. Separately, a solution of mouse melanoma B16 cells (1×10^6 cells) was likely injected subcutaneously into the right flank of an inbred wild-type (WT) mouse, CatE^−/− mouse and CatE^Tg mouse. The size of the tumor was measured with a caliper, and the tumor volume was calibrated by ab^2/2 (where a and b represent a maximum dimension of the central section and a minimum dimension of the central section, respectively). As the size of the heterograft of the ALVA-41 cell reached approximately 100 mm^3 (approximately at day 12 after injection), animals were divided into two groups of each 5 animals. To the two animal groups, respectively, purified cathepsin E (200 μg per kg of body weight per day) and physiological saline were injected into the central portion of the tumor for 16 days. For a measurement for the tumor weight and an immunohistochemical study, […] reached approximately 400 mm^3. For a study on metastasis, melanoma B16 cells (2×10^5 cells in 50 μl of PBS solution) was injected into a tail vein of a Wt mouse, CatE^−/− mouse and CatE^Tg. The mice were then anesthetized at day 22 after injection and killed with a lethal amount of diethylether, followed by removing the lungs and counting the number of black metastasis colonies.
As the tumor volume reached ˜[…] after subcutaneous injection, cathepsin E (200 μg/kg/day) or physiological saline was subcutaneously injected into the central portion of the tumor for 16 days. […] Data are represented as an average value±SD of the value obtained from three mice per each group. […] The TUNEL assay was carried out by reacting with diaminobenzidine and counter-staining tissue slices with 1% methyl green. Data represent the result obtained from five mice per group. In the figure, the lower image is an expanded version of the upper image. In the figure, a bar scale represents 50 μm.

The next data set concerns soluble TRAIL trimers. In words: immunoblot densitometry of soluble TRAIL trimer in culture supernatant. The format is cell-based, human. Conditions: PrE and prostate cancer cell lines treated with cathepsin E. The method, then: The SDS-PAGE and immunoblot analyses were carried out according to prior art literature (Reference #63). The protein fractioned by SDS-PAGE was migrated on nitrocellulose membrane and was blocked with 5% non-fat dried milk. Then, the nitrocellulose membrane was incubated overnight at 4° C. with a primary antibody, i.e., anti-TRAIL antibody (1/300-fold dilution), anti-TNF-α antibody (1/200-fold dilution), anti-FasL antibody (1/500-fold dilution), anti-DR4 antibody (1/500-fold dilution), anti-DR5 antibody (1/100-fold dilution), anti-DcR1 antibody (1/500-fold dilution), anti-DcR2 antibody (1/500-fold dilution), anti-osteoprotegrin (1/150-fold dilution) or anti-β-actin antibody (1/500-fold dilution). […] The resulting membrane was then washed several times and an immunocomplex was detected with a chemiluminescent reagent. The measurement for density was measured with LAS 1000 analyzer.
In this assay, the cells to be tested were incubated to a ˜80% confluent state and then together with cathepsin E (100 μg/ml) or physiological saline at 37° C. and pH 7.4 for 20 hours, followed by measurements for the cell survival rate by a colorimetric assay. […] As an alternative method, a culture medium of each cell line was immunoblot-analyzed using an anti-OPG antibody. […] Thereafter, the immunoblot was analyzed for its concentration in order to determine a quantity of a soluble TRAIL trimer. […]
A general note: In western blotting, separated proteins are transferred to a membrane and probed.

Consider cathepsin E, for which, in data set [1] (200 μg/kg daily for 16 days into central portion of tumor, start at approx. 100 mm^3), the “growth of tumor compared to saline control” value is “grown in a remarkably controlled manner”. For the same substance, the “weight of the tumor versus control group” value in data set [1] (400 μg/kg once per day for 10 days, start at approx. 400 mm^3) is “significantly lower”. Also, the “effect of suppressing the tumor” value in data set [1] (daily dose of 30 μg/kg or lower) is “little recognized”. Moreover, in data set [1] (daily dose of 50 μg/kg), the “effect upon regression of tumor” value was “rather decreased”. Also, in data set [1] (nude mice administered cathepsin E), the “toxicity toward normal tissues and cells” value is “no effect upon toxicity toward normal tissues and cells can be recognized at all”. In addition, the “apoptosis cells in tumor by TUNEL stain” value in data set [1] (tumors after 10 days administration) is on record as “a number of the apoptosis cells were observed”. Also, in the data set on soluble TRAIL trimers, the “order of increasing amounts of soluble TRAIL trimers secreted by treatment” value is listed as “PrE<PC-3<PPC-1<ALVA-101≦DU145<ALVA-41”.
